We go through four compounds from patent US6900202B2, “Di-substituted imineheterocyclic compounds” (priority 2000, dated 2005).

T1 sequence (P43681 29-627 limits assumed): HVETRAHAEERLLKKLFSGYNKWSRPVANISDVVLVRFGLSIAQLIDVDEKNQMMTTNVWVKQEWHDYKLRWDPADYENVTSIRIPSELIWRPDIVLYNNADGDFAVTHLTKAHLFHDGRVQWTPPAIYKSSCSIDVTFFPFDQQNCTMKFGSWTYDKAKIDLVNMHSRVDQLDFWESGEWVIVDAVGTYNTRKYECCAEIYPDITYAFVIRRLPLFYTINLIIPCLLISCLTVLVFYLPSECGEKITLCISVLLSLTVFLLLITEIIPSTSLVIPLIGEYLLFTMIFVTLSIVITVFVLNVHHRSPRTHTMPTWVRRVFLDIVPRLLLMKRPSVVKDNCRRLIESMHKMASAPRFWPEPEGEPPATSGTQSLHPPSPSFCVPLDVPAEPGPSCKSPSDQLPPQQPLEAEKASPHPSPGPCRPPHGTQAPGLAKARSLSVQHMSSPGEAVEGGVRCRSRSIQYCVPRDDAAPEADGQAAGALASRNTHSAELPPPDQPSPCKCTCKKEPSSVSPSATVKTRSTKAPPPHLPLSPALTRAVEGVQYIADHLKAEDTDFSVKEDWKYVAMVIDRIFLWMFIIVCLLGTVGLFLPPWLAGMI
T1 sequence (P17787 26-502): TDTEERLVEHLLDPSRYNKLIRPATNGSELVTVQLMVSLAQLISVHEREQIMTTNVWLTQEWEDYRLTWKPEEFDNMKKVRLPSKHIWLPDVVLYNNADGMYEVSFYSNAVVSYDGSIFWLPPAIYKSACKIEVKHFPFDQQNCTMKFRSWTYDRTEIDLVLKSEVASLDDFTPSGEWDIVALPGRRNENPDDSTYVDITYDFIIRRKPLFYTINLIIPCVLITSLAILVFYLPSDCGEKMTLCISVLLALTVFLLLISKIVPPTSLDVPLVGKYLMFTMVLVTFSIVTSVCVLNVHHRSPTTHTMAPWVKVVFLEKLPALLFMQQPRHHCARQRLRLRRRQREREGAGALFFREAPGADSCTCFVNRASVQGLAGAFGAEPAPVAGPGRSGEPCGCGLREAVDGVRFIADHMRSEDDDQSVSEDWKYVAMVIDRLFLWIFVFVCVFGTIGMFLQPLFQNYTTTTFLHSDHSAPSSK

The assay addresses T1, human α4β2 subtype of nicotinic acetylcholine receptors (Homo sapiens, UniProt P17787+P43681).
T1 construct: expressed in transfected cells; host or cells: Xenopus laevis oocytes injected with hnACh-R α4 and β2 cRNA (pSP64 polyA vector)
The assay is classed as cell-based. The conditions noted are these: response at 100 μM test compound, in comparison with response at 10 μM acetylcholine (100%); oocytes held at −50 mV. How it is done: The agonist effect in human α4β2 subtype of nicotinic acetylcholine receptors are examined by using human nicotinic acetylcholine receptors prepared in oocytes of Xenopus laevis, which is injected with cRNA from the corresponding cloning cDNA of human α4 and β2 subunits of nicotinic acetylcholine receptors, and to measure the expression of the electric response by adding the test compounds to perfusion solution by means of membrane potential holding method.
Agonist Activities at Human α4β2 Subtype of Nicotinic Acetylcholine Receptors
The agonist activities of the compounds of the present invention at human α4β2 subtype of nicotinic acetylcholine receptors was evaluated by the following method, which was modified method described by Papke R. L., Thinschmidt J. S., Moulton B. A., Meyer E. M. & Poirier A., Br. J. Pharmacol., 120, 429-438 (1997).
(1) Preparation of cRNA of Human α4β2 Subtype of Nicotinic Acetylcholine Receptors
The cloning of human nicotinic acetylcholine receptor (hnACh-R) α4 cDNA and hnAC-R β2 cDNA were performed, in accordance with the conventional manners, by synthesizing the each DNA primers corresponding to the sequences of hnACh-R α4 cDNA and hnACh-R β2 cDNA [Monteggia L. M. et al., Gene, 155, 189-193 (1995); and Anand R., & Lindstrom J., Nucl. Acids Res., 18, 4272 (1990)], and obtained hnACh-R α4 cDNA and hnACh-R β2 cDNA by polymerase chain reaction (PCR), respectively. The obtained hnACh-R α4 cDNA and hnACh-R β2 cDNA were inserted to the cRNA expression vector (pSP64 polyA) having SP6 RNA promoter to construct hnACh-R α4/pSP64 polyA and hnACh-R β2/pSP64 polyA, respectively. After cutting from expression vector by restriction enzyme (EcoRI), transcription was performed by affecting SP6 RNA polymerase in the presence of cap analogues to obtain hnACh-R α4 cRNA and hnACh-R β2 cRNA, respectively.
(2) Expression of Human α4β2 Subtype Nicotinic Acetylcholine Receptors in Xenopus Oocytes
Oocytes were purchased from Kitanihonseibustukyohzai Co., Ltd., which were already enucleated from Xenopus laevis, and used in this experiment.
The oocytes were treated with collagenase (Sigma type I; 1 mg/ml) in calcium-free modified Birth's solution (88 mM of NaCl, 1 mM of KCl, 2.4 mM of NaHCO3, 0.82 mM of MgSO4, 15 mM of HEPES, pH 7.6) under gently stirring at the room temperature for 90 minutes, and washed out the enzyme from the tissue. Then, oocytes were separated from ovarian follicle by tweezers, and isolated oocytes were placed in antibiotics containing modified Birth's solution (88 mM of NaCl, 1 mM of KCl, 2.4 mM of NaHCO3, 0.82 mM of MgSO4, 15 mM of HEPES, pH 7.6, and 0.1 v/v % of mixture solution containing of penicillin and streptomycin for incubation; Sigma Co.). Thus treated oocytes were injected with 50 nl of adjusted cRNAs (1.0 mg/ml), that is, each 50 ng of hnACh-R α4 cRNA and hnACh-R β2 cRNA per 1 oocyte by using automatic injector (NANOJECT; DRUMMOND […] CO.), and further incubated for 4-14 days at 19° C. In oocytes, heterogeneous quintuple [(α4)2(β2)3] was composed by translation of injected cRNAs, and ion channel receptors were constructed on cell membrane.
(3) Agonist Activities at Human α4β2 Subtype of Nicotinic Acetylcholine Receptors
The recordings of responses at human α4β2 subtype of nicotinic acetylcholine receptors by means of membrane potential holding method were performed as follow. […] Test compounds were added to the perfusion solution, and recorded the peak strength of induced inward electric current. […]
The compound `Clc1ccc(C/N=C2\SCCN2Cc2ccc(Cl)nc2)cn1` [Compound 1, 3-(6-chloro-3-pyridyl)methyl-2-[(6-chloro-3-pyridyl)methyl]iminothiazolidine] displayed an Agonist effect of 6%.

`Clc1ccc(C/N=C2\OCCCN2Cc2ccc(Cl)nc2)cn1` [Compound 2, 3-(6-chloro-3-pyridyl)methyl-2-[(6-chloro-3-pyridyl)-methyl]imino-3,4,5,6-tetrahydro-2H-1,3-oxazine] returned an Agonist effect of 27%.

The compound `Clc1ccc(C/N=c2\sccn2Cc2ccc(Cl)nc2)cn1` [Compound 8, 3-(6-chloro-3-pyridyl)methyl-2-[(6-chloro-3-pyridyl)methyl]imino-2,3-dihydrothiazole] showed an Agonist effect of 11%.

On to `Cn1ccn(Cc2ccc(Cl)nc2)c1=N` [Compound 13, 1-(6-chloro-3-pyridyl)methyl-2-imino-3-methyl-2,3-dihydroimidazole], for which the Agonist effect is listed as 5%.
